Test results taken from PubChem BioAssay AID2060360 (Molecular Pharmacology Branch, DTP, NCI, 2025).

Tested on: 282377-053-R-J1-PDC tumor spheroids, viability
Test: Anticancer human tumor 282377-053-R-J1-PDC patient-derived colon adenocarcinoma cell line growth inhibition [TAK]
Settings: spheroids with HUVEC and MSC; for IC50: curve of first compound; for viability, T/C: stronger effect = lower value
Outline: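 Drug combinations, each paired with TAK-243 or ipatasertib, were tested on multi-cell spheroids of 60% malignant cells, 25% HUVEC and 15% hMSC. Top concentrations were at or near the clinical Cmax (10 microM if undetermined), decreasing by half-log; viability is given as % test/control.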
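Further: spheroids exposed to drugs for seven days before readout.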

CC(C)n1nc(-c2ccc3oc(N)nc3c2)c2c(N)ncnc21 + CC(C)NCC(C(=O)N1CCN(c2ncnc3c2C(C)CC3O)CC1)c1ccc(Cl)cc1
IC50 (second compound 0.3 µM): > 100 nM
IC50 (second compound 0.949 µM): 66.6 nM
IC50 (second compound 3 µM): 30.3 nM
IC50 (second compound 9.49 µM): 14.7 nM
IC50 (second compound 30 µM): 4.07 nM
viability, T/C (second compound 0.3 µM, first compound 0.000316 µM): 106%
viability, T/C (second compound 0.3 µM, first compound 0.001 µM): 103%
viability, T/C (second compound 0.3 µM, first compound 0.00316 µM): 95.7%
viability, T/C (second compound 0.3 µM, first compound 0.01 µM): 88%
viability, T/C (second compound 0.3 µM, first compound 0.0316 µM): 69.7%
viability, T/C (second compound 0.3 µM, first compound 0.1 µM): 56.1%
viability, T/C (second compound 0.949 µM, first compound 0.000316 µM): 92%
viability, T/C (second compound 0.949 µM, first compound 0.001 µM): 93%
viability, T/C (second compound 0.949 µM, first compound 0.00316 µM): 86.3%
viability, T/C (second compound 0.949 µM, first compound 0.01 µM): 89.9%
viability, T/C (second compound 0.949 µM, first compound 0.0316 µM): 71.7%
viability, T/C (second compound 0.949 µM, first compound 0.1 µM): 38%
viability, T/C (second compound 3 µM, first compound 0.000316 µM): 83.5%
viability, T/C (second compound 3 µM, first compound 0.001 µM): 85.9%
viability, T/C (second compound 3 µM, first compound 0.00316 µM): 79%
viability, T/C (second compound 3 µM, first compound 0.01 µM): 71.5%
viability, T/C (second compound 3 µM, first compound 0.0316 µM): 49.1%
viability, T/C (second compound 3 µM, first compound 0.1 µM): 22.7%
viability, T/C (second compound 9.49 µM, first compound 0.000316 µM): 81.4%
viability, T/C (second compound 9.49 µM, first compound 0.001 µM): 77.3%
viability, T/C (second compound 9.49 µM, first compound 0.00316 µM): 74.7%
viability, T/C (second compound 9.49 µM, first compound 0.01 µM): 60.5%
viability, T/C (second compound 9.49 µM, first compound 0.0316 µM): 30%
viability, T/C (second compound 9.49 µM, first compound 0.1 µM): 14.8%
viability, T/C (second compound 30 µM, first compound 0.000316 µM): 68.8%
viability, T/C (second compound 30 µM, first compound 0.001 µM): 70.4%
viability, T/C (second compound 30 µM, first compound 0.00316 µM): 56.5%
viability, T/C (second compound 30 µM, first compound 0.01 µM): 25.9%
viability, T/C (second compound 30 µM, first compound 0.0316 µM): 15.9%
viability, T/C (second compound 30 µM, first compound 0.1 µM): 8.24%

CCCS(=O)(=O)Nc1ccc(F)c(C(=O)c2c[nH]c3ncc(-c4ccc(Cl)cc4)cc23)c1F + CC(C)NCC(C(=O)N1CCN(c2ncnc3c2C(C)CC3O)CC1)c1ccc(Cl)cc1
IC50 (second compound 0.3 µM): 7810 nM
IC50 (second compound 0.949 µM): 6860 nM
IC50 (second compound 3 µM): 7560 nM
IC50 (second compound 9.49 µM): 5950 nM
IC50 (second compound 30 µM): 2990 nM
viability, T/C (second compound 0.3 µM, first compound 0.316 µM): 79.5%
viability, T/C (second compound 0.3 µM, first compound 1 µM): 79.8%
viability, T/C (second compound 0.3 µM, first compound 3.16 µM): 82.6%
viability, T/C (second compound 0.3 µM, first compound 10 µM): 24.6%
viability, T/C (second compound 0.3 µM, first compound 31.6 µM): 1.89%
viability, T/C (second compound 0.3 µM, first compound 100 µM): 98.5%
viability, T/C (second compound 0.949 µM, first compound 0.316 µM): 76.7%
viability, T/C (second compound 0.949 µM, first compound 1 µM): 79.9%
viability, T/C (second compound 0.949 µM, first compound 3.16 µM): 84.2%
viability, T/C (second compound 0.949 µM, first compound 10 µM): 7.58%
viability, T/C (second compound 0.949 µM, first compound 31.6 µM): 2.94%
viability, T/C (second compound 0.949 µM, first compound 100 µM): 95.3%
viability, T/C (second compound 3 µM, first compound 0.316 µM): 76.8%
viability, T/C (second compound 3 µM, first compound 1 µM): 73.7%
viability, T/C (second compound 3 µM, first compound 3.16 µM): 80.5%
viability, T/C (second compound 3 µM, first compound 10 µM): 33.4%
viability, T/C (second compound 3 µM, first compound 31.6 µM): 1.38%
viability, T/C (second compound 3 µM, first compound 100 µM): 89.3%
viability, T/C (second compound 9.49 µM, first compound 0.316 µM): 72.4%
viability, T/C (second compound 9.49 µM, first compound 1 µM): 70.1%
viability, T/C (second compound 9.49 µM, first compound 3.16 µM): 71.3%
viability, T/C (second compound 9.49 µM, first compound 10 µM): 10.9%
viability, T/C (second compound 9.49 µM, first compound 31.6 µM): 10.1%
viability, T/C (second compound 9.49 µM, first compound 100 µM): 76.7%
viability, T/C (second compound 30 µM, first compound 0.316 µM): 57.4%
viability, T/C (second compound 30 µM, first compound 1 µM): 61%
viability, T/C (second compound 30 µM, first compound 3.16 µM): 49.5%
viability, T/C (second compound 30 µM, first compound 10 µM): 9.48%
viability, T/C (second compound 30 µM, first compound 31.6 µM): 0.93%
viability, T/C (second compound 30 µM, first compound 100 µM): 46.8%
